Counter-ions that a name gives are not always drawn. Marks after values point to notes of the source that are not given here.
Experiments:
[1] = system: cerebral infarction after intraluminal occlusion of the middle cerebral artery (MCA) in rats; assay: Focal ischemic model in rats, occlusion of the middle cerebral artery; assay type: in vivo; conditions: rat, 40 μg/kg intravenously, 24 hours after ischemic damage
Procedure: The rats were anaesthetised with halotan, maintaining their temperature at 37.5° C. using an electric blanket connected to a rectal probe and cannulating the left femoral artery to monitor blood pressure. The right carotid artery was exposed, occluding the extra-cranial branches, and a blunt nylon filament was introduced through the external carotid until reaching the level when the middle cerebral artery (MCA) branches.
The selected compounds were administered intravenously. 24 Hours after the ischemic damage, the rats were anaesthetised with ether, they were perfused with saline solution and were then decapitated, extracting the brains that were cut into 1.5 mm coronal slices. The slices were then incubated in 4% triphenyltetrazolium chloride (TTC), which reacts with the intact mitochondrial enzymes producing a red colour which contrasts with the paleness of the infracted area, permitting it to be viewed, subsequently maintaining it in 10% formalin. The volume of cerebral infarction (mm^3) was calculated by measuring, in an image analyser, the affected area in the areas of cerebral cortex irrigated by the MCA and in the striatum and multiplying the average value obtained in each slice by the thickness thereof.

[2] = system: primary cultures of rat hippocampus; assay: Neurotoxicity induced by hypoxia/hypoglycaemia (oxygen-glucose deprivation), MTT; assay type: cell-based; conditions: glucose-free medium, 2 hours 95% N2/5% CO2, MTT
Procedure: (§1) The capacity to prevent neurotoxicity induced by hypoxia/hypoglycaemia in primary cultures of rat hippocampus (E18) was determined. […] After centrifuging at 700 g, the pellet was mechanically redispersed. The density of the cellular suspension was measured and aliquots were taken to culture on Petri dishes, previously coated with poly-lysine, using the same medium. […] Before the hypoxia, the compounds to be studied were added at variable times and concentrations.

[3] = system: primary cultures of rat hippocampus; assay: Neurotoxicity due to deprivation of trophic factors (serum deprivation), MTT; assay type: cell-based; conditions: serum-free medium 48 hours
Procedure: as §1
In this case, an Eagle medium (DMEM) modified with 10% of calf serum was initially used and, after 10 days, the cultures were transferred to the DMEM culture deprived of calf serum.

| Molecule | melting point [°C] | other results |
| --- | --- | --- |
| O=C1C2CCCN2C(=O)N1CCCCNCc1ccc2ccccc2n1 (stereo not shown) | 125 to 126 | – |
| O=C1C2CCCN2C(=O)N1CCCCNCCOc1cccc(Br)c1 (stereo not shown) (as salt: salt) | 140 to 143 | – |
| CCc1ccccc1OCCNCCCCN1C(=O)C2CCCN2C1=O (stereo not shown) (as salt: salt) | 115 to 118 | – |
| CCOc1ccccc1OCCNCCCCN1C(=O)CSC1=O (as salt: salt) [ff, 3-[4-[2-(o-Ethoxyphenoxy)ethylamino]butyl]-2,4-dioxothiazolidine] | 70 to 74 | – |
| CCOc1ccccc1OCCNCCCCCCCCN1C(=O)CSC1=O (as salt: salt) [hh, 3-[8-[2-(o-Ethoxyphenoxy)ethylamino]octyl]-2,4-dioxothiazolidine] | 105 to 108 | – |
| O=C1C2CCCCN2C(=O)N1CCCCNCc1ccc2ccccc2n1 (stereo not shown) (as salt: salt) [kk, 2-[4-[(2-Quinolyl)methylamino]butyl]-1,3-dioxoperhydroimidazo[1,5-a]pyridine] | 206 to 208 | – |
| O=C1C2CCCCN2C(=O)N1CCCCCCNCc1ccc2ccccc2n1 (stereo not shown) (as salt: salt) [ll, 2-[6-[(2-Quinolyl)methylamino]hexyl]-1,3-dioxoperhydroimidazo[1,5-a]pyridine] | 176 to 188 | – |
| O=C1C2CCCN2C(=O)N1CCCCNCCOc1ccccc1Br (stereo not shown) (as salt: salt) [o, 2-[4-[2-(o-Bromophenoxy)ethylamino]butyl]-1,3-dioxoperhydropyrrolo[1,2-c]imidazole] | 98 to 99 | – |
| O=C1c2ccccc2S(=O)(=O)N1CCCCNC[C@H]1CCc2ccccc2O1 [(−)-BAYx3702] | – | Infarcted Volumen Cortical [1]: 271.2 ± 54.7* mm^3; Infarcted Volumen Subcortical [1]: 105.5 ± 9.3 mm^3; Infarcted Volumen Total [1]: 376.7 ± 57.8* mm^3; Protection (%) Oxygen-glucose deprivation [2]: 77.5 ± 8.6%; Protection (%) Serum Deprivation [3]: 31.0 ± 2.9% |
| CCCN(CCC)C1CCc2cccc(O)c2C1 (stereo not shown) [Compound 8-OH-DPAT, 8-OH-DPAT] | – | Protection (%) Oxygen-glucose deprivation [2]: 54.0 ± 3.5%; Protection (%) Serum Deprivation [3]: 44.0 ± 1.4% |
| (±)-BAYx3702 | – | Protection (%) Serum Deprivation [3]: 25.9 ± 2.5% |
